Read-outs that look alike come from different tables or passages of the source. Peptide text beside a SMILES is read from it. * marks the point of attachment. Cbz = O=C(OCc1ccccc1)*
How the values were obtained:
[1] = system: M. tuberculosis; conditions: under nitrosative stress; ref [20]; cited from earlier work
[2] = molecular target: c-20S β5c (Homo sapiens, UniProt P20618+P28074); conditions: ref [20], cited from earlier work
[3] = molecular target: i-20S β5i (Homo sapiens, UniProt P20618+P28062); conditions: ref [20], cited from earlier work
[4] = molecular target: T1, Mtb20SOG (Mycobacterium tuberculosis, UniProt P9WHT9); conditions: ref [20], cited from earlier work
[5] = molecular target: T1, Mtb20SOG; assay: biochemical

T1 sequence (P9WHT9 58-291): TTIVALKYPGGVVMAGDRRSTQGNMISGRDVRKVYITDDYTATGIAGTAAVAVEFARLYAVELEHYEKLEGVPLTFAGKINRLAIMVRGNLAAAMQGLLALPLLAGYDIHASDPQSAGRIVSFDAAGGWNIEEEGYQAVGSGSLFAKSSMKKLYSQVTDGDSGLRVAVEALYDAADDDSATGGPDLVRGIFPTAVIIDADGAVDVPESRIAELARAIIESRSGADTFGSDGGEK
T1 sequence (P9WHU1 9-248 partner): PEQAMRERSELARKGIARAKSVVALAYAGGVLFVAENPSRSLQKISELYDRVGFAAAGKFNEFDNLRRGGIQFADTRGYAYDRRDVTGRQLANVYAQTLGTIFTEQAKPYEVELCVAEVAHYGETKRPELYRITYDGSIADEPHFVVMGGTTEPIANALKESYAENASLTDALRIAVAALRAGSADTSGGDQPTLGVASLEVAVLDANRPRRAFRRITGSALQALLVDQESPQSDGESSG

Structure (SMILES) | bactericidal activity against nonreplicating bacteria [1] | SIapp IC50β5c/IC50Mtb20SOG ([2]; apparent selectivity index) | IC50 ([2]; read-out: IC50 c-20S β5c (LLVY), suc-LLVY-AMC) [µM] | affinity for Mtb 20S stronger than for human c-20S [2] [fold] | SIapp IC50β5i/IC50Mtb20SOG ([3]; apparent selectivity index) | IC50 ([3]; read-out: IC50 i-20S β5i (ANW), Ac-ANW-AMC) [µM] | affinity for Mtb 20S stronger than for human i-20S [3] [fold] | more potent against Mtb20SOG than DPLG-4 ([4]; DPLG-4 has a 4-isopropyl phenyl P1 group) [fold] | more potent against Mtb20SOG than ML9 ([4]; ML9 has a 2,4-difluorobenzyl P1 group) [fold] | IC50 ([4]; read-out: IC50 Mtb20SOG (LLVY), suc-LLVY-AMC) [µM] | IC50 [5] [µM]
CCN(CC)C(=O)C[C@H](NC(=O)CCc1ccccc1)C(=O)N[C@@H](Cc1ccc(F)cc1)C(=O)NCc1cccc2ccccc12 [DPLG-2] | bactericidal activity | 4667 | 70 | 4667 | 3647 | 54.7 | 3647 | 51 | 4 | 0.015 | 
CC(C)C[C@@H](C=O)NC(=O)[C@H](CC(C)C)NC(=O)[C@H](CC(C)C)NC(=O)OCc1ccccc1 [MG-132] (Cbz-Leu-Leu-Leu-aldehyde) |  |  |  |  |  |  |  |  |  |  | 1.71 ± 0.079

— publication PMC5745808 (Biochemistry, 2016)
